# Where a SMILES comes first, the peptide text is derived from it. Bridges are numbered along the chain shown (N, C = ends). [ ]: non-standard residue; d: D form. ξ: configuration not given here. ξpGlu = O=C1CCC(C(=O)O)N1
# Legend:
# [1] = Toxicity in human RBC assessed as hemolytic activity at 50 uM measured after 1 hr by spectrophotometric analysis; type: cell-based, Erythrocyte; settings: for Activity: erythrocyte, 1 h, 50 µM
# [2] = Toxicity in Thamnaconus modestus RBC assessed as hemolytic activity at 0.08 to 50 uM measured after 1 hr by spectrophotometric analysis; type: cell-based; settings: erythrocyte
# Plasma = assay: Metabolic stability in human plasma at 37 degC measured upto 12 hrs by reverse-phase HPLC analysis; type: ADME, cell-free
# [3] = Thermal stability of the compound in phosphate buffer of pH 7.4 at 50 ug at 100 degC assessed as conformation changes by measuring changes in short wavelength region (195 nanometer) by CD analysis; type: physicochemical
# [4] = Thermal stability of the compound in phosphate buffer of pH 7.4 at 50 ug at 25 degC by CD analysis; type: physicochemical
# [5] = Thermal stability in Tris-acetate-EDTA buffer of pH 8.3 at 100 degC measured upto 12 hrs by reverse-phase HPLC analysis; type: physicochemical; settings: pH 8.3, 12 h
# RAW264.7 [6] = assay: Cytotoxicity against mouse RAW264.7 cells assessed as cell viability at 10 or 40 ug/ml measured after 24 hrs by WST assay; type: cell-based; settings: raw264.7, 24 h
# RAW264.7 [7] = assay: Toxicity in mouse RAW264.7 cells assessed as in induction of Nitric oxide production at 10 or 40 ug/ml measured after 24 hrs by Griess reaction method; type: cell-based; settings: raw264.7, 24 h
# [8] = Cytotoxicity against rat Ac2F cells at 30 uM; type: cell-based
# [9] = Chemical stability assessed as trypsin (unknown origin)-mediated degradation in simulated human intestinal fluid at 37 degC measured up to 12 hrs by reverse-phase HPLC analysis; type: ADME, physicochemical; settings: simulated gi fluid
# [10] = Chemical stability assessed as chymotrypsin (unknown origin)-mediated degradation in simulated human intestinal fluid at 37 degC measured up to 12 hrs by reverse-phase HPLC analysis; type: ADME, physicochemical; settings: simulated gi fluid
# [11] = Chemical stability assessed as pepsin (unknown origin)-mediated degradation in simulated human intestinal fluid at 37 degC measured up to 12 hrs by reverse-phase HPLC analysis; type: ADME, physicochemical; settings: simulated gi fluid
# [12] = Chemical stability assessed as elastase (unknown origin)-mediated degradation in simulated human intestinal fluid at 37 degC measured up to 12 hrs by reverse-phase HPLC analysis; type: ADME, physicochemical; settings: simulated gi fluid
Structure (SMILES),Stability (Plasma),Stability [3],Stability [4],Stability [5],Stability [9],Stability [10],Stability [11],Stability [12],Activity [1],Activity [2],Activity (RAW264.7 [6]),Activity (RAW264.7 [7]),Activity [8],"hemolysis at 1 h, 50 µM ([1]; red blood cells, read-out: Activity) [%]"
"CC[C@H](C)[C@@H]1NC(=O)[C@@H]2CSSC[C@@H]3NC(=O)[C@H](CO)NC(=O)[C@H](CCC(=O)O)NC(=O)CNC(=O)[C@H](CCC(=O)O)NC(=O)[C@H](Cc4ccccc4)NC(=O)[C@H](C)NC(=O)[C@@H](NC(=O)CNC(=O)C4CCC(=O)N4)CSSC[C@H](NC(=O)[C@H](CSSC[C@@H](C(=O)N[C@@H](Cc4ccc(O)cc4)C(=O)N[C@@H](Cc4ccc(O)cc4)C(=O)N[C@@H](CC(C)C)C(=O)O)NC(=O)[C@H]([C@@H](C)O)NC(=O)CNC(=O)[C@H](CC(=O)O)NC(=O)[C@@H]4CCCN4C(=O)[C@H](CC(N)=O)NC(=O)CNC(=O)[C@@H]4CCCN4C1=O)NC(=O)[C@@H]1CCCN1C(=O)[C@H](Cc1ccc(O)cc1)NC(=O)[C@H](Cc1ccccc1)NC(=O)[C@H](CCC(=O)O)NC(=O)[C@H](C(C)C)NC(=O)[C@H](CC(N)=O)NC3=O)C(=O)N1CCC[C@H]1C(=O)NCC(=O)N[C@@H](CC(C)C)C(=O)NCC(=O)N[C@@H](CC(C)C)C(=O)N[C@@H]([C@@H](C)O)C(=O)N2 (stereo not given in full) ([ξpGlu]GCAFEGESCNVEFYPCCPGLGLTCIPGNPDGTCYYL-OH; disulfide 3-18, 10-25, 17-34)",–,–,–,–,–,–,–,–,Non-toxic,Non-toxic,–,–,–,–
"CC[C@H](C)[C@H](NC(=O)[C@@H](NC(=O)[C@H](Cc1ccc(O)cc1)NC(=O)[C@@H]1CSSC[C@@H]2NC(=O)[C@@H]3CCCN3C(=O)[C@H](CC(N)=O)NC(=O)[C@H](Cc3ccccc3)NC(=O)[C@H](CCC(=O)O)NC(=O)[C@H](C(C)C)NC(=O)[C@H](CC(=O)O)NC(=O)[C@@H]3CSSC[C@H](NC(=O)[C@H]([C@@H](C)O)NC(=O)[C@H](CC(C)C)NC(=O)[C@@H]4CCCN4C(=O)[C@@H]4CCCN4C(=O)[C@H](CSSC[C@H](N)C(=O)N4CCC[C@H]4C(=O)NCC(=O)N[C@@H](CCC(=O)O)C(=O)NCC(=O)N[C@@H](CCC(=O)O)C(=O)N[C@@H](CCC(=O)O)C(=O)N3)NC2=O)C(=O)N[C@@H]([C@@H](C)CC)C(=O)N2CCC[C@H]2C(=O)NCC(=O)N[C@@H](CC(=O)O)C(=O)N2CCC[C@H]2C(=O)N[C@@H](Cc2ccc(O)cc2)C(=O)NCC(=O)N[C@@H]([C@@H](C)CC)C(=O)N1)[C@@H](C)CC)C(=O)O (H-CPGEGEECDVEFNPCCPPLTCIPGDPYGICYII-OH; disulfide 1-16, 8-21, 15-30)",Stable,Unstable,Stable,Stable,Stable,Stable,Stable,Stable,Non-toxic,Non-toxic,Non-toxic,Non-toxic,Non-toxic,–
CC(C)C[C@@H]1NC(=O)CNC(=O)[C@H](CC(N)=O)NC(=O)[C@H](CCCNC(=N)N)NC(=O)[C@H]([C@@H](C)O)NC(=O)[C@@H]2CSSC[C@@H]3NC(=O)[C@H]([C@@H](C)O)NC(=O)CNC(=O)CNC(=O)[C@H](C(C)C)NC(=O)[C@@H]4CSSC[C@H](NC(=O)[C@H]([C@@H](C)O)NC(=O)[C@H](CSSC[C@H](NC(=O)[C@H](C(C)C)NC(=O)[C@@H]5CCCN5C1=O)C(=O)NCC(=O)N[C@@H](CCC(=O)O)C(=O)N[C@@H]([C@@H](C)O)C(=O)N4)NC(=O)CNC(=O)[C@@H]1CCCN1C(=O)[C@H]([C@@H](C)O)NC(=O)[C@H](CC(N)=O)NC3=O)C(=O)N[C@@H](CO)C(=O)N[C@@H](Cc1c[nH]c3ccccc13)C(=O)N1CCC[C@H]1C(=O)N[C@@H](C(C)C)C(=O)N2,–,–,–,Stable,–,–,–,–,–,–,–,–,–,74
"CC[C@H](C)[C@@H]1NC(=O)CNC(=O)CNC(=O)[C@@H]2CCCN2C(=O)[C@H](CC(=O)O)NC(=O)CNC(=O)[C@@H]2CCCN2C(=O)[C@H](Cc2ccc(O)cc2)NC(=O)[C@@H]2CSSC[C@@H]3NC(=O)[C@H](CCC(=O)O)NC(=O)[C@H](CCC(=O)O)NC(=O)CNC(=O)[C@@H]4CCCN4C(=O)CNC(=O)[C@H](C)NC(=O)[C@@H](NC(=O)CNC(=O)C4CCC(=O)N4)CSSC[C@H](NC(=O)[C@H](CSSC[C@@H](C(=O)N[C@@H](Cc4ccc(O)cc4)C(=O)O)NC1=O)NC(=O)[C@H](CC(=O)O)NC(=O)[C@H](Cc1ccc(O)cc1)NC(=O)[C@H](Cc1ccccc1)NC(=O)CNC(=O)[C@H](C(C)C)NC(=O)[C@H]([C@@H](C)CC)NC3=O)C(=O)N1CCC[C@H]1C(=O)NCC(=O)N[C@@H](Cc1ccc(O)cc1)C(=O)N[C@@H](CCCNC(=N)N)C(=O)N2 (stereo not given in full) ([ξpGlu]GCAGPGEECIVGFYDCCPGYRCYPGDPGGICY-OH; disulfide 3-18, 10-23, 17-32)",–,–,–,–,–,–,–,–,Non-toxic,Non-toxic,Non-toxic,Non-toxic,–,–

# Continued, in another order:
Stability (Plasma),Stability [3],Stability [4],Stability [5],Stability [9],Stability [10],Stability [11],Stability [12],Structure (SMILES),Activity [1],Activity [2],Activity (RAW264.7 [6]),Activity (RAW264.7 [7]),Activity [8],"hemolysis at 1 h, 50 µM ([1]; red blood cells, read-out: Activity) [%]"
Stable,Unstable,Stable,–,Stable,Stable,Stable,Stable,"CC[C@H](C)[C@@H]1NC(=O)[C@H](CC(C)C)NC(=O)CNC(=O)[C@H](CC(=O)O)NC(=O)[C@@H]2CSSC[C@H](NC(=O)[C@H](Cc3c[nH]c4ccccc34)NC(=O)C3CCC(=O)N3)C(=O)N[C@@H](C)C(=O)N[C@@H](CCC(=O)O)C(=O)N[C@@H](CCC(=O)O)C(=O)NCC(=O)N[C@@H](CCC(=O)O)C(=O)N[C@@H](CO)C(=O)N[C@H]3CSSC[C@H](NC1=O)C(=O)N[C@@H](Cc1ccc(O)cc1)C(=O)N1CCC[C@H]1C(=O)N[C@@H]([C@@H](C)O)C(=O)N[C@@H](Cc1ccccc1)C(=O)N1CCC[C@H]1C(=O)N[C@@H](CCC(=O)O)C(=O)N1CCC[C@H]1C(=O)N[C@@H]([C@@H](C)CC)C(=O)N[C@H](C(=O)NCC(=O)N[C@H](C(=O)O)C(C)C)CSSC[C@H](NC(=O)[C@@H]1CCCN1C(=O)[C@H](Cc1ccc(O)cc1)NC(=O)[C@H](C(C)C)NC(=O)[C@H](CCC(=O)O)NC3=O)C(=O)N2 (stereo not given in full) ([ξpGlu]WCAEEGESCEVYPCCDGLICYPTFPEPICGV-OH; disulfide 3-16, 10-21, 15-30)",Non-toxic,Non-toxic,–,–,–,–
–,–,–,Stable,–,–,–,–,CC[C@H](C)[C@H](NC(=O)[C@@H](NC(=O)[C@H](Cc1ccc(O)cc1)NC(=O)[C@@H]1CSSC[C@@H]2NC(=O)[C@@H]3CCCN3C(=O)[C@H](CC(N)=O)NC(=O)[C@H](Cc3ccccc3)NC(=O)[C@H](CCC(=O)O)NC(=O)[C@H](C(C)C)NC(=O)[C@H](CC(=O)O)NC(=O)[C@@H]3CSSC[C@H](NC(=O)[C@H]([C@H](C)O)NC(=O)[C@H](CC(C)C)NC(=O)[C@@H]4CCCN4C(=O)[C@@H]4CCCN4C(=O)[C@H](CSSC[C@H](N)C(=O)N4CCC[C@H]4C(=O)NCC(=O)N[C@@H](CCC(=O)O)C(=O)NCC(=O)N[C@@H](CCC(=O)O)C(=O)N[C@@H](CCC(N)=O)C(=O)N3)NC2=O)C(=O)N[C@@H]([C@@H](C)CC)C(=O)N2CCC[C@H]2C(=O)NCC(=O)N[C@@H](CC(=O)O)C(=O)N2CCC[C@H]2C(=O)N[C@@H](Cc2ccc(O)cc2)C(=O)NCC(=O)N[C@@H]([C@@H](C)CC)C(=O)N1)[C@@H](C)CC)C(=O)O,Non-toxic,Non-toxic,Non-toxic,Non-toxic,–,–

# Reference: ChEMBL document CHEMBL3808389, “Stable and biocompatible cystine knot peptides from the marine sponge Asteropus sp” (Bioorg Med Chem, 2016)
